Source: article PMC5303205, “Comparative studies on the multi-component pharmacokinetics of Aristolochiae Fructus and honey-fried Aristolochiae Fructus extracts after oral administration in rats” (BMC Complementary and Alternative Medicine, 2017)
Like-named read-outs stand apart in the source and are kept apart here.

How the values were obtained:
[1] = Stability of AAs in rat plasma (QC samples, HPLC-MS/MS); format: in vitro ADME; settings: n = 5; for Short-term stability (RSD/%): fresh rat plasma at room temperature for 24 h before sample preparation; for Post-preparation stability (RSD/%): prepared rat plasma samples at room temperature for 24 h; for Long-term stability (RSD/%): rat plasma stored at –20 °C for 14 days; for Freeze-thaw stability (RSD/%): rat plasma, three freeze-thaw cycles (–20 °C 24 h, thawed at room temperature)
Protocol: The QC samples were assayed under several different conditions to evaluate the stability of AAs in rat plasma. The freeze-thaw stability of the analyte was determined over three freeze-thaw cycles. In each freeze-thaw cycle, the samples were frozen and stored at –20 °C for 24 h, then thawed at room temperature. To evaluate the long-term stability of AAs, the plasma samples were stored at –20 °C for 14 days. For the short-term stability, fresh plasma samples were kept at room temperature for 24 h before the sample preparation. After keeping the samples at room temperature for 24 h, post-preparation stability was tested. Stability was evaluated by comparing the mean concentration of the stored samples with the mean concentration of those prepared freshly. The stability data were acceptable when the bias was within ±15% of the actual value.

[2] = Multi-component pharmacokinetics of AAs in rats after oral administration of AF and HAF extracts (HPLC-MS/MS of plasma); parameters: species or system Sprague–Dawley (SD) rats; settings: Sprague-Dawley, rat, in vivo
Protocol: An aliquot (100 μl) of rat plasma was spiked with 10.0 μL IS, and vortexed with 300 μL acetic ether for 10 s before the supernatant was transferred into centrifuge tube. The extraction was repeated with 200 μL acetic ether. The combined organic layer was evaporated to dryness under a gentle stream of nitrogen at RT. The residue was resolved in 100 μL methanol and centrifuged at 15,800 × g for 10 min. The supernatant was used for HPLC-MS/MS analysis.
Chromatographic separation was performed by an Acquity C18 column (4.6 × 100 mm,3.5 μm) (Agilent Technologies, USA). The mobile phase was composed of water (containing 10 mM ammonium formate and formic acid, pH 3.0) (solvent A) and ACN (solvent B). The gradient profile of B was: 0–10 min, 35–38%; 10–11 min, 38– 60%; 11–17 min, 60–35%B; 17–18 min, 35%. The flow rate was kept at 0.5 mL/min. The column oven was set at 30 °C and the injection volume was 10 μL.
The mass spectrometer was operated in the positive ion electrospray mode with multiple reaction monitoring (MRM). The optimal MS parameters were set at the following parameters: a desolvation gas temperature of 450 °C, desolvation gas flow of 10 L/min, a nebulizer gas of 40 psi and a capillary voltage of 4000 V. The mass spectrometry conditions of AA I, AA II, AA C, AA D, 7-OH AA I and IS are summarized in Additional file 1: Table S1.
The rats were randomly divided into 6 groups (low, middle and high doses of AF and HAF; n = 6). After a week of acclimation, the animals were fasted for 12 h with free access to water. Then, AF and HAF extracts were administered to the rats. The extracts were suspended in 0.5% CMC–Na solution, and the oral doses (according to AA I in the extracts) were 3.0 mg/kg, 8.0 mg/kg and 15.0 mg/kg, respectively.
Blood samples were collected from the ocular vein using dried heparinized tubes at 0, 0.083, 0.17, 0.33, 0.50, 0.67, 0.83, 1, 2, 4, 6, 8, 10, 12 and 24 h from the start. The animals received fluid replacement (sterile isotonic saline) after every two samplings since the fifth collecting. The samples were then immediately centrifuged at 3100 × g for 10 min. The plasma obtained was frozen and stored at –20 °C until analysis.
All statistical analyses were performed using the SPSS 11.0 software (Chicago, USA). P values <0.05 were considered statistically significant. Pharmacokinetic analysis was performed using the proprietary DAS 3.0 software (Mathematical Pharmacology Professional Committee of China, Shanghai, China).
After the oral administration of AF and HAF extracts, rat plasma samples were prepared and analyzed as described above. Five main AAs can be detected in rat blood with the proposed HPLC-MS/MS method. The mean pharmacokinetic parameters of five AAs in AF and HAF are summarized in Tables 4, 5 and Additional files 5, 6, 7: Tables S4-S6. The maximum concentration (C max) was the experimentally-observed value. The other pharmacokinetic parameters of the five analytes were fitted by DAS 3.0 software.

[3] = high QC conc ng/mL: AA I 1830, AA II 3200, AA C 2980, AA D 3680, 7-OH AA I 3280
[4] = low QC conc ng/mL: AA I 1.83, AA II 8.00, AA C 186.3, AA D 36.8, 7-OH AA I 82.0
[5] = middle QC conc ng/mL: AA I 457.5, AA II 400, AA C 372.5, AA D 460, 7-OH AA I 410
[6] = 3 mg/kg, AF extract, low dose (3.0 mg/kg as AA I), analyte dose mg/kg: AA I 3.0, AA II 0.21, AA C 1.42, AA D 1.60, 7-OH AA I 2.33, n = 6
[7] = 3 mg/kg, HAF extract, low dose (3.0 mg/kg as AA I), analyte dose mg/kg: AA I 3.0, AA II 0.26, AA C 1.53, AA D 1.51, 7-OH AA I 2.48, n = 6
[8] = 8 mg/kg, AF extract, mid dose (8.0 mg/kg as AA I), analyte dose mg/kg: AA I 8.0, AA II 0.56, AA C 3.78, AA D 4.26, 7-OH AA I 6.22, n = 6
[9] = 8 mg/kg, HAF extract, mid dose (8.0 mg/kg as AA I), analyte dose mg/kg: AA I 8.0, AA II 0.69, AA C 4.09, AA D 4.03, 7-OH AA I 6.62, n = 6
[10] = 15 mg/kg, AF extract, high dose (15.0 mg/kg as AA I), analyte dose mg/kg: AA I 15.0, AA II 1.05, AA C 7.09, AA D 8.00, 7-OH AA I 11.66, n = 6
[11] = 15 mg/kg, HAF extract, high dose (15.0 mg/kg as AA I), analyte dose mg/kg: AA I 15.0, AA II 1.29, AA C 7.66, AA D 7.56, 7-OH AA I 12.41, n = 6

For `COc1c(O)ccc2c1cc([N+](=O)[O-])c1c(C(=O)O)cc3c(c12)OCO3` [7-OH AA I], the “Short-term stability (RSD/%)” value [1, 3] was 9.1%, the “Short-term stability (RSD/%)” value [1, 4] was 7.1% and the “Short-term stability (RSD/%)” value [1, 5] was 11.8%. For the same molecule, the “Post-preparation stability (RSD/%)” value [1, 3] was 6.7%, the “Post-preparation stability (RSD/%)” value [1, 4] was 5.1% and the “Post-preparation stability (RSD/%)” value [1, 5] was 4.2%. For the same molecule, the “Long-term stability (RSD/%)” value [1, 3] was 11.1%, the “Long-term stability (RSD/%)” value [1, 4] was 2.0% and the “Long-term stability (RSD/%)” value [1, 5] was 6.4%. The “Freeze-thaw stability (RSD/%)” value [1, 3] was 13.4%, the “Freeze-thaw stability (RSD/%)” value [1, 4] was 6.2% and the “Freeze-thaw stability (RSD/%)” value [1, 5] was 12.3%. For the same molecule, the AUC(0-inf) [2, 6] was 602 ng·h/mL, the Cmax [2, 6] was 214 ng/mL and the Tmax [2, 6] was 0.64 h. For the same molecule, the CL/F ([2]; 3 mg/kg, AF extract, low dose (3.0 mg/kg as AA I), analyte dose mg/kg: AA I 3.0, AA II 0.21, AA C 1.42, AA D 1.60, 7-OH AA I 2.33, n = 6, read-out: CLz/F (converted)) was 71.5 mL/min/kg, the Vd/F ([2]; 3 mg/kg, AF extract, low dose (3.0 mg/kg as AA I), analyte dose mg/kg: AA I 3.0, AA II 0.21, AA C 1.42, AA D 1.60, 7-OH AA I 2.33, n = 6, read-out: Vz/F) was 24.7 L/kg and the half-life ([2]; 3 mg/kg, AF extract, low dose (3.0 mg/kg as AA I), analyte dose mg/kg: AA I 3.0, AA II 0.21, AA C 1.42, AA D 1.60, 7-OH AA I 2.33, n = 6, read-out: t 1/2z (converted)) was 3.84 h. For the same molecule, the AUC(0-inf) [2, 7] was 620 ng·h/mL, the Cmax [2, 7] was 216 ng/mL and the Tmax [2, 7] was 0.5 h. The CL/F ([2]; 3 mg/kg, HAF extract, low dose (3.0 mg/kg as AA I), analyte dose mg/kg: AA I 3.0, AA II 0.26, AA C 1.53, AA D 1.51, 7-OH AA I 2.48, n = 6, read-out: CLz/F (converted)) was 81.3 mL/min/kg, the Vd/F ([2]; 3 mg/kg, HAF extract, low dose (3.0 mg/kg as AA I), analyte dose mg/kg: AA I 3.0, AA II 0.26, AA C 1.53, AA D 1.51, 7-OH AA I 2.48, n = 6, read-out: Vz/F) was 17.5 L/kg and the half-life ([2]; 3 mg/kg, HAF extract, low dose (3.0 mg/kg as AA I), analyte dose mg/kg: AA I 3.0, AA II 0.26, AA C 1.53, AA D 1.51, 7-OH AA I 2.48, n = 6, read-out: t 1/2z (converted)) was 2.75 h. It also gave an AUC(0-inf) [2, 8] of 1160 ng·h/mL, a Cmax [2, 8] of 404 ng/mL and a Tmax [2, 8] of 0.72 h. It also gave a CL/F ([2]; 8 mg/kg, AF extract, mid dose (8.0 mg/kg as AA I), analyte dose mg/kg: AA I 8.0, AA II 0.56, AA C 3.78, AA D 4.26, 7-OH AA I 6.22, n = 6, read-out: CLz/F (converted)) of 92.5 mL/min/kg, a Vd/F ([2]; 8 mg/kg, AF extract, mid dose (8.0 mg/kg as AA I), analyte dose mg/kg: AA I 8.0, AA II 0.56, AA C 3.78, AA D 4.26, 7-OH AA I 6.22, n = 6, read-out: Vz/F) of 26.1 L/kg and a half-life ([2]; 8 mg/kg, AF extract, mid dose (8.0 mg/kg as AA I), analyte dose mg/kg: AA I 8.0, AA II 0.56, AA C 3.78, AA D 4.26, 7-OH AA I 6.22, n = 6, read-out: t 1/2z (converted)) of 3.25 h. For the same molecule, the AUC(0-inf) [2, 9] was 991 ng·h/mL, the Cmax [2, 9] was 366 ng/mL and the Tmax [2, 9] was 0.67 h. For the same molecule, the CL/F ([2]; 8 mg/kg, HAF extract, mid dose (8.0 mg/kg as AA I), analyte dose mg/kg: AA I 8.0, AA II 0.69, AA C 4.09, AA D 4.03, 7-OH AA I 6.62, n = 6, read-out: CLz/F (converted)) was 109 mL/min/kg, the Vd/F ([2]; 8 mg/kg, HAF extract, mid dose (8.0 mg/kg as AA I), analyte dose mg/kg: AA I 8.0, AA II 0.69, AA C 4.09, AA D 4.03, 7-OH AA I 6.62, n = 6, read-out: Vz/F) was 25.4 L/kg and the half-life ([2]; 8 mg/kg, HAF extract, mid dose (8.0 mg/kg as AA I), analyte dose mg/kg: AA I 8.0, AA II 0.69, AA C 4.09, AA D 4.03, 7-OH AA I 6.62, n = 6, read-out: t 1/2z (converted)) was 2.55 h. For the same molecule, the AUC(0-inf) [2, 10] was 1320 ng·h/mL, the Cmax [2, 10] was 566 ng/mL and the Tmax [2, 10] was 0.5 h. The CL/F ([2]; 15 mg/kg, AF extract, high dose (15.0 mg/kg as AA I), analyte dose mg/kg: AA I 15.0, AA II 1.05, AA C 7.09, AA D 8.00, 7-OH AA I 11.66, n = 6, read-out: CLz/F (converted)) was 174 mL/min/kg, the Vd/F ([2]; 15 mg/kg, AF extract, high dose (15.0 mg/kg as AA I), analyte dose mg/kg: AA I 15.0, AA II 1.05, AA C 7.09, AA D 8.00, 7-OH AA I 11.66, n = 6, read-out: Vz/F) was 52.3 L/kg and the half-life ([2]; 15 mg/kg, AF extract, high dose (15.0 mg/kg as AA I), analyte dose mg/kg: AA I 15.0, AA II 1.05, AA C 7.09, AA D 8.00, 7-OH AA I 11.66, n = 6, read-out: t 1/2z (converted)) was 3.45 h. For the same molecule, the AUC(0-inf) [2, 11] was 1130 ng·h/mL, the Cmax [2, 11] was 531 ng/mL and the Tmax [2, 11] was 0.53 h. The CL/F ([2]; 15 mg/kg, HAF extract, high dose (15.0 mg/kg as AA I), analyte dose mg/kg: AA I 15.0, AA II 1.29, AA C 7.66, AA D 7.56, 7-OH AA I 12.41, n = 6, read-out: CLz/F (converted)) was 207 mL/min/kg, the Vd/F ([2]; 15 mg/kg, HAF extract, high dose (15.0 mg/kg as AA I), analyte dose mg/kg: AA I 15.0, AA II 1.29, AA C 7.66, AA D 7.56, 7-OH AA I 12.41, n = 6, read-out: Vz/F) was 47.4 L/kg and the half-life ([2]; 15 mg/kg, HAF extract, high dose (15.0 mg/kg as AA I), analyte dose mg/kg: AA I 15.0, AA II 1.29, AA C 7.66, AA D 7.56, 7-OH AA I 12.41, n = 6, read-out: t 1/2z (converted)) was 2.94 h.
